Data published in patent publication US5155130A, “Certain benzopyran and benzothiopyran derivatives” (Ciba-Geigy Corporation, priority 1990, dated 1992).

Tests used:
5-lipoxygenase [1] = target: T1, 5-lipoxygenase (Cavia porcellus, UniProt A0A286X958); test: Inhibition of 5-HETE and LTB4 synthesis in A-23187-stimulated guinea pig polymorphonuclear leukocytes; format: cell-based; settings: read-out: IC50 for inhibition of the formation of 5-HETE and leukotriene B4 (LTB4)
T1 construct: A-23187-stimulated guinea pig polymorphonuclear leukocytes; endogenous in cells; host or cells: guinea pig polymorphonuclear leukocytes
T1 sequence (A0A286X958 1-674): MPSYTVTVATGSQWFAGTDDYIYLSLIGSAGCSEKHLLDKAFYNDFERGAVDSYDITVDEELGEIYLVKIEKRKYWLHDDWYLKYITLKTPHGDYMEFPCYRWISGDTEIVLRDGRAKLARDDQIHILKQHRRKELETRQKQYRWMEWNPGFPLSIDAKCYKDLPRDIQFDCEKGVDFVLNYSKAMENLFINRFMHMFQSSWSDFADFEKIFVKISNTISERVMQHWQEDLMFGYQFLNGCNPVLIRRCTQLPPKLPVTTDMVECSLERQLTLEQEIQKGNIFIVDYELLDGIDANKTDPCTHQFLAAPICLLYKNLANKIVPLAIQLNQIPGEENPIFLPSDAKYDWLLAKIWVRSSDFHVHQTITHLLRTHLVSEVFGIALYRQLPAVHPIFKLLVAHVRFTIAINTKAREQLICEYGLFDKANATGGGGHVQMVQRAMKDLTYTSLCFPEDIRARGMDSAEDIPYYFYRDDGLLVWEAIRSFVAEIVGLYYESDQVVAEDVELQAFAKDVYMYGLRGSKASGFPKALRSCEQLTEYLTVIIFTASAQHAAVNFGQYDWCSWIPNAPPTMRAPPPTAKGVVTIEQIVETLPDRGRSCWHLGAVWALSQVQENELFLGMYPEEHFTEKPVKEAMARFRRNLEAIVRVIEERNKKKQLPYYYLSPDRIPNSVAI
Method: 5-Lipoxygenase inhibition is determined e.g. by measuring the percent inhibition of the synthesis of 5-HETE [(5S)-5-hydroxy-6,8,11,14-eicosa-tetraenoic acid] and leukotriene B4 (LTB4, 5,12-dihydroxy-6,8,10,14-eicosatetraenoic acid) in A-23187-stimulated guinea pig polymorphonuclear leukocytes, essentially according to radiometric thin-layer chromatographic assays described by Walker and Dawson (J. Pharm. Pharmacol. 31: 778, 1979) and Jakschik and Lee (Nature 287: 51, 1980) to measure the formation of 5-HETE and LTB4 -like products from ^14 C-arachidonic acid. IC50 values are determined graphically as the concentration of test compound at which the synthesis of 5-HETE and LTB4 -like products is reduced to 50% of their respective control values.

5-lipoxygenase [2] = test: Ex vivo A-23187-stimulated LTB4 formation in whole blood after oral administration; settings: dog, about 0.3 mg/kg p.o.
Method: Furthermore, the inhibition of 5-lipoxygenase is determined after oral or i.v. administration to rats or dogs by measuring ex vivo in whole blood the decrease of A-23187-stimulated LTB4 formation as compared to non-treated control animals.

[3] = system: rat pleurisy model of inflammation; test: Carrageenin-induced pleurisy model of inflammation; format: in vivo; settings: 10 mg/kg p.o. at -1, 6, 24 and 45 hours relative to carrageenin injection, 48 hours after injection
Text: 214, 74 (1980), in particular during the late phase of the corrageenin-induced pleurisy.

[4] = system: rat chronic colitis model; test: Trinitrobenzenesulfonic acid-induced chronic colitis model; format: in vivo; settings: 100 mg/kg p.o. for 4 days
Text: The trinitrobenzenesulfonic acid-induced chronic colitis test in the rat, e.g. as described by Wallace et al, Gastroenterology 1989, 96, 29-36, can be used to evaluate compounds for effects indicative of utility in inflammatory bowel diseases.

For `NC(=O)N(O)CC1=Cc2cc(Oc3ccccc3)ccc2OC1` [2(d), 3-[(N-Aminocarbonyl-N-hydroxy)aminomethyl]-6-phenoxy-2H-1-benzopyran], the IC50 (5-lipoxygenase [1]) was ~50 nM, the “inhibition of LTB4 formation as determined ex vivo” value (5-lipoxygenase [2]) was “significant inhibition” and the “cell count of leukocytes” value [3] was “lower”. For the same compound, the “inhibition of exudate volume” value [3] was “inhibition” and the inhibition of colitis [4] was “inhibits colitis”.

In the case of `CNC(=O)N(O)CC1=Cc2cc(Oc3ccc(F)cc3)ccc2OC1` [5(f), 3-[{N-(N'-methylaminocarbonyl)-N-hydroxy}aminomethyl]-6-(p-fluorophenoxy)-2H-1-benzopyran], the “inhibition of LTB4 formation as determined ex vivo” value (5-lipoxygenase [2]) is reported as “significant inhibition”, the “cell count of leukocytes” value [3] is reported as “lower” and the “inhibition of exudate volume” value [3] is reported as “inhibition”.
